From US11655207B2, “Pharmaceutically acceptable salt of alkylcarbamoyl naphthalenyloxy octenoylhydroxy amide or of derivative thereof and method for preparing same” (CRYSTALGENOMICS, INC., priority 2017, dated 2023) come the findings set out here.

Converted amounts (≈) assume the structure as drawn. Read-outs that look alike come from different tables or passages of the source.

A short description of series [1]: Change in appearance of the salts at room temperature for 24 hours. Type of series: physicochemical. To be noted: for Initial appearance: dried material; for Appearance (stored at R.T. for 24 hrs) / change in appearance (text summary of Table 4): room temperature, 24 hours. The procedure:
In the case of the suspension and the gel, firstly it was vacuum dried under reduced pressure and secondly vacuum dried for 24 to 48 hours.

Series [2] is described as follows: Stability evaluation: change in appearance under storage conditions. Type of series: physicochemical. From the text:
In order to evaluate the change in appearance of the compounds according to Comparative Examples and Examples, it was observed after storing each compound in accordance with the conditions shown in Table 6 below.

Series [3] in a line: Stability evaluation: change in the amount of related substances. The format is physicochemical. To be noted: for change (increase) in the amount of related substances: open state, room temperature, 3 days, FIG. 3.
The nature of series [4]: Stability evaluation: change in moisture content. Type of series: physicochemical. Conditions: open state, room temperature (20 to 25° C., 50% or less), 3 days vs initial; FIG. 2. The procedure: In order to evaluate the change in moisture content, the compounds according to Examples and Comparative Examples were stored in an open state at room temperature (20 to 25° C., 50% or less), and the change was measured by the difference between the initial moisture content and the moisture content after 3 days.

Series [5] can be described thus: Solubility of the compound of formula (1) in organic solvents (HPLC). Type of series: physicochemical.
Setting [6] is: 1 day, Acceleration (40±2° C. and 75±5% RH).
[7] abbreviates: 1 day, Long-term (25±2° C. and 60±5% RH).
[8] abbreviates: 1 day, Room temperature (20 to 25° C., 50% or less).

With `CN(C)CCCNC(=O)/C(=C/CCCCC(=O)NO)COc1cccc2ccccc12.CS(=O)(=O)O` [Methanensulfonic acid], in series [1], the Initial appearance entry is “Foam” and the “Appearance (stored at R.T. for 24 hrs)” value was “Gel-like”.

For `CCCCCCCCCCCCCCCCCC(=O)O` [Stearic acid], in series [1], the Initial appearance result is “Powder”, the “Appearance (stored at R.T. for 24 hrs)” value is given as “Powder” and the “change in appearance (text summary of Table 4)” value was “no change in appearance was observed”.

As for `O=C(O)CCCC(=O)O` [Glutaric acid], in series [1], the Initial appearance entry is on record as “Powder” and the “Appearance (stored at R.T. for 24 hrs)” value is “Gel-like”.

`O=C(O)CCC(=O)O` [Succinic acid]: in series [1], the Initial appearance result is given as “Powder” and the “Appearance (stored at R.T. for 24 hrs)” value is listed as “Gel-like”.

For `CC(=O)O` [Acetic acid], in series [1], the Initial appearance result was “Foam” and the “Appearance (stored at R.T. for 24 hrs)” value is listed as “Gel-like”.

`O=C(O)/C=C\C(=O)O` [Maleic acid]: in series [1], the Initial appearance result was “Foam” and the “Appearance (stored at R.T. for 24 hrs)” value is recorded as “Gel-1ike”.

`O=S(=O)(O)c1ccc2ccccc2c1` [Naphthalene-2-sulfonic acid]: in series [1], the Initial appearance result is recorded as “Powder” and the “Appearance (stored at R.T. for 24 hrs)” value is on record as “Gel-like”.

As for `O=S(=O)(O)O` [Sulfuric acid], in series [1], the Initial appearance entry is reported as “Gel-like” and the “Appearance (stored at R.T. for 24 hrs)” value was “Gel-like”.

Take `O=C(O)c1ccc2ccccc2c1O` [Naphthoic acid, 1-hydroxy-2]: in series [1], the Initial appearance entry was “Powder” and the “Appearance (stored at R.T. for 24 hrs)” value is “Gel-like”.

With `O=C(O)CC(O)(CC(=O)O)C(=O)O` [Citric acid], in series [1], the Initial appearance result is on record as “Foam” and the “Appearance (stored at R.T. for 24 hrs)” value was “Gel-like”.

For `CN(C)CCCNC(=O)/C(=C/CCCCC(=O)NO)COc1cccc2ccccc12.O=C(O)C(F)(F)F` [Trifluoracetic acid], in series [1], the Initial appearance entry is given as “Ge-1ike” and the “Appearance (stored at R.T. for 24 hrs)” value was “Gel-like”.

In the case of `CCS(=O)(=O)O` [Ethanesulfonic acid], in series [1], the Initial appearance entry is on record as “Foam” and the “Appearance (stored at R.T. for 24 hrs)” value is listed as “Gel-like”.

For the molecule `CN(C)CCCNC(=O)/C(=C/CCCCC(=O)NO)COc1cccc2ccccc12.Cc1ccc(S(=O)(=O)O)cc1` [Toluensulfonic acid, para], in series [1], the Initial appearance result is “Foam” and the “Appearance (stored at R.T. for 24 hrs)” value is “Gel-like”.

On to `O=C(O)CC(=O)O` [Malonic acid], for which, in series [1], the Initial appearance result is “Foam” and the “Appearance (stored at R.T. for 24 hrs)” value is “Gel-like”.

Turning to `Cl` [Hydrochloric acid], in series [1], the Initial appearance entry is “Gel-like” and the “Appearance (stored at R.T. for 24 hrs)” value is on record as “Gel-like”.

Consider `O=C(O)/C=C/C(=O)O` [Fumaric acid], for which, in series [1], the Initial appearance entry was “Powder” and the “Appearance (stored at R.T. for 24 hrs)” value is given as “Gel-like”.

As to `CN(C)CCCNC(=O)/C(=C/CCCCC(=O)NO)COc1cccc2ccccc12.O=C(O)C(O)C(O)C(=O)O` [Example 1, Alkylcarbamoyl Naphthalenyloxy Octenoyl Hydroxyamide Tartaric Acid Salt], the Appearance entry in series [2] (setting [6]) is “Gel-like”; in series [2] (setting [7]), “Gel-like”; in series [2] (setting [8]), “Powder”; in series [2] (1 day, Severe (60±2° C.)), “Powder”; in series [2] (Initial value), “Powder”. In series [3] (according to temperature and storage period, FIGS. 4 and 5), the “amount of formation of the related substances” value is “maintained in a certain range at a relatively low temperature”. Also, in series [3], the “change (increase) in the amount of related substances” value came to 0.05%. Further, in series [4], the “increase in moisture content” value amounted to 2%. For the same molecule, the Initial appearance entry in series [1] was “Powder”. The “Appearance (stored at R.T. for 24 hrs)” value in series [1] is recorded as “Powder”. The “change in appearance (text summary of Table 4)” value in series [1] was “no change in appearance was observed”. Also, the Content runs as follows: (bottle package, 1 day, Acceleration (40±2° C. and 75±5% RH)) 89.1; (bottle package, 1 day, Long-term (25±2° C. and 60±5% RH)) 99.1; (bottle package, 3 days, Acceleration (40±2° C. and 75±5% RH)) 84.0; (bottle package, 3 days, Long-term (25±2° C. and 60±5% RH)) 84.1; (bottle package, 7 days, Acceleration (40±2° C. and 75±5% RH)) 78.5; (bottle package, 7 days, Long-term (25±2° C. and 60±5% RH)) 78.5. Besides, the Content reads like this: (open state, 1 day, Acceleration (40±2° C. and 75±5% RH)) 92.3; (open state, 3 days, Severe (60±2° C.)) 97.2; (open state, 7 days, Room temperature) 100.1; (open state, 7 days, Severe (60±2° C.)) 89.1; (open state, Initial value) 98.9; (polyethylene bottle package (added silica gel), Initial value) 98.9. Under “open state and bottle package, all storage conditions”, the “change in content (text summary of Tables 7 and 8)” value is given as “maintained constant at room temperature regardless of the packaging state”.

In the case of `O=S(=O)(O)c1ccccc1` [Benzensulfonic acid], in series [1], the Initial appearance entry is “Foam” and the “Appearance (stored at R.T. for 24 hrs)” value is “Gel-like”.

Consider `CN(C)CCCNC(=O)/C(=C/CCCCC(=O)NO)COc1cccc2ccccc12.O=C(O)[C@H](O)[C@@H](O)[C@H](O)[C@H](O)CO` [Gluconic acid, (D−)], for which, in series [1], the Initial appearance result is “Powder” and the “Appearance (stored at R.T. for 24 hrs)” value is “Gel-like”.

On to `O=C(O)c1ccccc1` [Benzoic acid], for which, in series [1], the Initial appearance result is reported as “Foam” and the “Appearance (stored at R.T. for 24 hrs)” value is reported as “Gel-like”.

`O=C(O)CNC(=O)c1ccccc1` [Hippuric acid]: in series [1], the Initial appearance result was “Foam” and the “Appearance (stored at R.T. for 24 hrs)” value is “Gel-like”.

The Solubility is how much of the substance goes into solution per volume. Low readings indicate a poorly soluble substance, high ones a readily soluble substance. With `CN(C)CCCNC(=O)/C(=C/CCCCC(=O)NO)COc1cccc2ccccc12` [Comparative Example 1, alkylcarbamoyl naphthalenyloxy octenoyl hydroxyamide], the Appearance result is on record as “Gel-like” in series [2] (setting [6]); “Gel-like” in series [2] (setting [7]); “Gel-like” in series [2] (setting [8]); “Gel-like” in series [2] (1 day, Severe (60±2° C.)); “Foam” in series [2] (Initial value). In addition, in series [2] (storage conditions of Table 6), the “change in appearance (Table 6)” value is listed as “changed from initial foam such as a sponge to a highly viscous liquid or gel structure”. The Solubility is recorded as 72.3 mg/mL (≈ 169 mM) in series [5] (1,4-dioxane, 20° C.); 72.3 mg/mL (≈ 169 mM) in series [5] (1,4-dioxane, 50° C.); greater than 58.8 mg/mL in series [5] (1-butanol, 20° C.); 73.8 mg/mL (≈ 173 mM) in series [5] (2-propanol, 20° C.); 77.3 mg/mL (≈ 181 mM) in series [5] (2-propanol, 50° C.); 43.3 mg/mL (≈ 101 mM) in series [5] (Acetone, 20° C.). Besides, the Solubility in series [5] (Acetone, 50° C.) was 43.7 mg/mL (≈ 102 mM); in series [5] (Acetonitrile, 20° C.) it was 6.1 mg/mL (≈ 14.3 mM); in series [5] (Acetonitrile, 50° C.), 16.5 mg/mL (≈ 38.6 mM); in series [5] (Butan-2-ol, 20° C.) it was 39.6 mg/mL (≈ 92.6 mM); in series [5] (Butan-2-ol, 50° C.), 72.0 mg/mL (≈ 168 mM); in series [5] (Chloroform, 20° C.) it was greater than 80.7 mg/mL. Further, the Solubility in series [5] (Dimethyl sulfoxide, 20° C.) is greater than 70.6 mg/mL; in series [5] (Ethanol, 20° C.), greater than 77.4 mg/mL; in series [5] (Ethyl acetate, 20° C.), 4.6 mg/mL (≈ 10.8 mM); in series [5] (Ethyl acetate, 50° C.), 20.3 mg/mL (≈ 47.5 mM); in series [5] (Methanol, 20° C.), greater than 68.4 mg/mL; in series [5] (Methylene Ketone, 20° C.) it was 66.6 mg/mL (≈ 156 mM). Besides, the Solubility is on record as 69.7 mg/mL (≈ 163 mM) in series [5] (Methylene Ketone, 50° C.); greater than 76.6 mg/mL in series [5] (N,N-dimethylformamide, 20° C.); greater than 70.3 mg/mL in series [5] (Propanol, 20° C.); 0.8 mg/mL (≈ 1.87 mM) in series [5] (Tert-butylmethyl ether, 20° C.); 0.8 mg/mL (≈ 1.87 mM) in series [5] (Tert-butylmethyl ether, 50° C.); greater than 74.0 mg/mL in series [5] (Tetrahydrofuran, 20° C.). Further, the Solubility in series [5] (Toluene, 20° C.) was 1.0 mg/mL (≈ 2.34 mM); in series [5] (Toluene, 50° C.), 3.3 mg/mL (≈ 7.72 mM). For the same molecule, the “change (increase) in the amount of related substances” value in series [3] is reported as “about 10%”. Also, in series [4], the “increase in moisture content” value is given as “about 3%”. Besides, the Initial appearance entry in series [1] is “Foam”. Further, the “Appearance (stored at R.T. for 24 hrs)” value in series [1] is reported as “Gel-like”.
